Results taken from patent US20180237362A1, “NOVEL POLYGODIAL ANALOGS FOR THE TREATMENT OF CANCER AND OTHER PROLIFERATIVE DISEASES” (THE BOARD OF REGENTS OF THE UNIVERSITY OF TAXAS SYSTEM, priority 2015, published 2018).
Like-named read-outs stand apart in the source and are kept apart here.

Experiments:
Type in all cases: cell-based
[1] = tested on: transgenic mouse glioma cells (neurosphere cultures); assay: CytoTox-Fluor cytotoxicity assay, neurosphere glioma cultures; conditions: cdkn2a deletion with PDGFB or EGFRvIII; 24 h; 5 at 20 μM, CBD at 10 μM
Procedure: FIGS. 5A-D. Activity of 5 against neurosphere glioma cell cultures with clinically relevant mutations. Transgenic mouse glioma cells of defined molecular subtypes were generated by forced expression of EGFRvIII (classical GBM subtype), PDGFB (proneural GBM subtype) in cdkn2a-deficient and cdkn2a/TRPV1-doubly deficient subventricular neural precursors (NPC). These primary cell cultures were treated for 24 hours either with 10 μM CBD versus a corresponding vehicle-control (containing 0.01% DMSO) or 20 μM of 5 versus vehicle control (0.02% DMSO). Cytotoxicity was measured 24 h after incubation and base-line cytotoxicity levels in the controls were arbitrarily defined as 1. Read-outs from treated cells were normalized to their respective vehicle controls and -fold change of relative cytotoxicity was calculated. Each bar represents the mean±SD from two independent experiments; statistical significance, as determined by unpaired t-tests, is indicated: *** represents p<0.001; ** p<0.005; * p=0.0257; ns not significant).
Human mammary carcinoma MCF-7 (ATCC HTB22) cells were cultured in RPMI supplemented with 10% FBS. […]
The CytoTox-Fluor cytotoxicity assay from Promega has been used according to manufacturer's instructions. […] After 2 hours of incubation at 37° C., the fluorescence intensity was measured using the Tecan InfiniteF200 fluorescence plate reader (485 nm Ex/520 nm Em). […]

[2] = tested on: U373 human glioma cell line; assay: Quantitative videomicroscopy, U373; conditions: at GI50 concentrations (Table 1)
Procedure: FIG. 8. In vitro videomicroscopic analysis of the anticancer effects of 1 and its C12-Wittig derivatives 5 and 13. The U373 human glioma cell line was treated with polygodial, 5 and 13 at their mean GI50 concentrations (Table 1) or left untreated. Videomicroscopy enabled taking pictures of the culture field every 4 minutes. The experiment was conducted once in triplicate. While the morphology of cells treated with 1 was fixed over time, 5 and 13 exerted cytostatic effects on U373 cells.
In an effort to gain insight into possible mechanisms associated with antiproliferative properties of 1 and the C12-Wittig derivatives, the morphological changes in cells treated with these compounds were studied with computer-assisted phase-contrast microscopy (Luchetti et al., 2012) (quantitative videomicroscopy).

[3] = target: T1, CHO cells that overexpress TRPV1 (CHO-TRPV1) (Homo sapiens, UniProt Q8NER1); assay: Calcium imaging, CHO-TRPV1; conditions: for TRPV1 activation (calcium influx), CHO-TRPV1: polygodial 80 μM, P10 4 μM, P3 50 μM
T1 construct: expressed in transfected cells; host or cells: CHO cells
Procedure: CHO cells that overexpress TRPV1 (CHO-TRPV1) were treated with polygodial (80 μM), P10 ([…]), or P3 (50 μM) and calcium influx was measured. Cells were also pre-treated with the TRPV1 antagonist capsazepine (CPZ; 10 μM) to determine if calcium influx via TRPV1 was inhibited. 3 μM ionomycin was used as a positive control. Fluo-4 Direct Calcium Assay Kit and Sweptfield confocal with Nikon Ti were used to visualize calcium influx and the images were analyzed using ImageJ software.

[4] = tested on: human Hs683 anaplastic oligodendroglioma; assay: MTT antiproliferative assay, Hs683; conditions: sextuplicates, read-out: GI50 in vitro values, Hs683
Procedure: Human mammary carcinoma MCF-7 (ATCC HTB22) cells were cultured in RPMI supplemented with 10% FBS. The U87 cells (ATCC HTB-14) were cultured in DMEM culture medium, while the A549 cells (DSMZ ACC107) were cultured in RPMI culture medium supplemented with 10% heat-inactivated FBS. The GBM Hs683 (ATCC HTB-138) cells were cultivated in DMEM supplemented with 10% FBS. The human uterine sarcoma MES-SA (ATCC CRL1966) and MES-SA/D×5 cells were cultured in RPMI-1640 medium supplemented with 10% FBS with MES SA/D×5 maintained in the presence of 500 nM Doxorubicin (Sigma). SKMEL-28 cells (ATCC HTB72) and U373 GBM cells (ECACC 08061901) were cultured in RPMI culture medium supplemented with 10% heat-inactivated FBS. Cell culture media were supplemented with 4 mM glutamine (Lonza code BE17-605E), 100 μg/mL gentamicin (Lonza code 17-5182), and penicillin-streptomycin (200 units/ml and 200 μg/ml) (Lonza code 17-602E). The MDA-MB-231 (ATCC HTB-26) epithelial mammary adenocarcinoma cells were cultured in Eagle's minimum essential medium (EMEM; Invitrogen) containing 5% fetal calf serum (FCS, Cambrex), 2 mM L-glutamine (Invitrogen), 0.06% HEPES (Invitrogen) and penicillin (50 IU/ml)/streptomycin (50 µg/ml; Invitrogen) at 37° C. in a humidified atmosphere of 5% CO2 in air. Transformed mouse NPCs were cultured in suspension under neurosphere conditions at 37° C. in a humidified atmosphere of […] and 5% CO2 in DMEM F12 (Invitrogen 11320-074) supplemented with 1×B27 supplement (Invitrogen 17504-044), 5% penicillin-streptomycin (Biochrom 10378-017), 10 ng/ml EGF (R&D systems 236-EG), 10 ng/ml FGF (PeproTech 100-18B).
Antiproliferative properties of the synthesized compounds were evaluated by the MTT assay. All compounds were dissolved in DMSO at a concentration of either 100 μM or 50 μM prior to cell treatment. The cells were trypsinized and seeded at various cell concentrations depending on the cell type. The cells were grown for 24 h to 72 h, treated with compounds at concentrations ranging from 0.001 to 100 μM and incubated for 48 or 72 h in 100 or 200 μL media depending on the cell line used. The number of experiments and replicates varied depending on the cell line. Cells treated with 0.1% DMSO were used as a negative control; 1 μM PAO was used as a positive control.
The synthesized C12-Wittig derivatives were evaluated for antiproliferative activities in a panel of cancer cell lines that included apoptosis-resistant human U373 glioblastoma (GBM) (Lefranc et al., 2013), human A549 non-small cell lung cancer (NSCLC) and human SKMEL-28 melanoma (Mathieu et al., 2009) as well as apoptosis-sensitive human Hs683 anaplastic oligodendroglioma (Lefranc et al., 2013) and human MCF-7 breast cancer (Frolova et al., 2013).

T1 sequence (Q8NER1 whole entry): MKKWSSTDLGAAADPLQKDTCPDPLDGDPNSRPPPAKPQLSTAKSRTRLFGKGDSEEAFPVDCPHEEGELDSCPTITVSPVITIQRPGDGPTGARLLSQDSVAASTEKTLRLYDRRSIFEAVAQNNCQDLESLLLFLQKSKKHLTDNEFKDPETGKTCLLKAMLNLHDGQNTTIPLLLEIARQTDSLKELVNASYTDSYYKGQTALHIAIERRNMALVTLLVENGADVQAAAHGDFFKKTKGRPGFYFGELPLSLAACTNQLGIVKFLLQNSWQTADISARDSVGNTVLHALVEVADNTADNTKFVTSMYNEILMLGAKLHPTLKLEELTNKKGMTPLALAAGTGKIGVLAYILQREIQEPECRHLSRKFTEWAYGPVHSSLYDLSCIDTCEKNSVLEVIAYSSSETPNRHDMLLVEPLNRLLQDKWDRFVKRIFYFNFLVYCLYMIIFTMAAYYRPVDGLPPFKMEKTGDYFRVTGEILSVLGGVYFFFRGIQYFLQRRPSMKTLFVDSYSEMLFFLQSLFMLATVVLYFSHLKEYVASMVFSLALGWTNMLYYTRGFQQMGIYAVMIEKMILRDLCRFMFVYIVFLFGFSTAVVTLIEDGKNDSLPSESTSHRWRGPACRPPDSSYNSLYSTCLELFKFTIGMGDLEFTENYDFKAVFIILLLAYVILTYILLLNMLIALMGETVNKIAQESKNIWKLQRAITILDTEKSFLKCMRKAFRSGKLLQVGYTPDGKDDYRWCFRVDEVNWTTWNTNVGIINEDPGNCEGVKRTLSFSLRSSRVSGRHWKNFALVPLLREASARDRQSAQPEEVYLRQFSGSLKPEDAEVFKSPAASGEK

Row | Compound | cytotoxicity against GBM neurosphere cultures [1] | morphological effect by videomicroscopy [2] | TRPV1 activation (calcium influx), CHO-TRPV1 [3] | GI50 ([4]; 72 h treatment) [µM] | reversal of calcium influx by capsazepine, CHO-TRPV1 ([3]; CPZ 10 μM pre-treatment) | GI50 ([4]; Homo sapiens, Hs 683, 72 h treatment) [µM]
1 | COC(=O)/C=C/C1=CC[C@H]2C(C)(C)CCC[C@]2(C)[C@H]1C=O [Compound 5] | effectiveness similar to that of cannabidiol (CBD) | inhibited cancer cell proliferation without inducing cell death | do not | 24 | – | –
2 | CC1(C)CCC[C@]2(C)[C@@H](C=O)C(C=O)=CC[C@@H]12 [Compound 1, Polygodial] | – | strong fixative effects | activates TRPV1 | – | reversible by CPZ pre-treatment | 95
